The record followed here is ChEMBL document CHEMBL4616620, “Discovery and SAR of aryl hydroxy pyrimidinones as potent small molecule agonists of the GPCR APJ” (Bioorg Med Chem Lett, 2020).

Values joined by “and” are separate entries in the source; they are usually repeats but may differ in a detail not shown here. Equal values may be shown once. Where only a bound is given, the exact number is not on record here.

One data set has as its target T1, Apelin receptor (Homo sapiens, UniProt P35414).
T1 sequence (P35414 whole entry): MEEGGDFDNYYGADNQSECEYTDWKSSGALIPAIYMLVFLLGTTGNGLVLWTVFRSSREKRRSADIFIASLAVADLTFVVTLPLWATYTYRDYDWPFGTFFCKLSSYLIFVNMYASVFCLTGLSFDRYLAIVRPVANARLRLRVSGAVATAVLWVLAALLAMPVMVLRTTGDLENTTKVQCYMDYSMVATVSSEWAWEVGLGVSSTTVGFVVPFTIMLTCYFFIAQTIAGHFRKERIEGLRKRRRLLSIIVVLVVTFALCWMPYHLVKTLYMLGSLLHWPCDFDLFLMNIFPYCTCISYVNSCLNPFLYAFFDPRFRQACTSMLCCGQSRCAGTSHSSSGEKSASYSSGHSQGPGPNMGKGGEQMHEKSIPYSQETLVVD
The experiment in a line: Agonist activity at human APJ expressed in HEK293 cells assessed as inhibition of forskolin-stimulated cAMP production. In kind it is functional, cell-based. (Cyclic AMP is a second messenger, typically raised through Gs and lowered through Gi signalling.)

Data set [1] concerns the target T2, Apelin receptor (Homo sapiens) (UniProt P35414).
T2 sequence (whole entry): T1 sequence (P35414 whole entry)
The experiment in a line: Agonist activity at human APJ expressed in HEK293 cells assessed as inhibition of forskolin-stimulated cAMP production at 10 uM relative to control. In kind it is functional, cell-based.

The nature of data set [2]: Cmax in mouse at 10 mg/kg, po. Also noted: dose 10 mg/kg, route oral. The data set is classed as ADME, organism-based. The conditions noted are these: in vivo.
Data set [3] concerns the target Voltage-gated inwardly rectifying potassium channel KCNH2 (Homo sapiens, UniProt Q12809). Put plainly: Inhibition of human ERG.
In data set [4] the target is CYP450 (isoform not stated) (Homo sapiens, UniProt P04798+P05177+P05181+P08684+P10632+P10635+P11509+P11712+P13584+P20813+P20815+P20853+P24462+P24903+P33260+P33261+P51589+P78329+P98187+Q02928+Q08477+Q16678+Q16696+Q5TCH4+Q6VVX0+Q7Z449+Q8TAV3+Q96SQ9+Q9HB55). Put plainly: Inhibition of CYP450 (unknown origin). In kind it is ADME, protein assay.
Data set [5] is described as follows: Permeability of compound at pH 7.4 by PAMPA assay. In kind it is ADME. As to conditions: read-out: permeability.
A short description of data set [6]: Permeability of compound at pH 5.5 by PAMPA assay. The data set is classed as ADME. As to conditions: read-out: permeability. (In general: The PAMPA barrier holds no transporters, so it reflects passive diffusion.)
Data set [7] is described as follows: AUC in mouse at 10 mg/kg, po. The data set is classed as ADME, organism-based. As to conditions: in vivo.
Data set [8] addresses T3, Nuclear receptor subfamily 1 group I member 2 (Homo sapiens, UniProt O75469).
T3 sequence (O75469 whole entry): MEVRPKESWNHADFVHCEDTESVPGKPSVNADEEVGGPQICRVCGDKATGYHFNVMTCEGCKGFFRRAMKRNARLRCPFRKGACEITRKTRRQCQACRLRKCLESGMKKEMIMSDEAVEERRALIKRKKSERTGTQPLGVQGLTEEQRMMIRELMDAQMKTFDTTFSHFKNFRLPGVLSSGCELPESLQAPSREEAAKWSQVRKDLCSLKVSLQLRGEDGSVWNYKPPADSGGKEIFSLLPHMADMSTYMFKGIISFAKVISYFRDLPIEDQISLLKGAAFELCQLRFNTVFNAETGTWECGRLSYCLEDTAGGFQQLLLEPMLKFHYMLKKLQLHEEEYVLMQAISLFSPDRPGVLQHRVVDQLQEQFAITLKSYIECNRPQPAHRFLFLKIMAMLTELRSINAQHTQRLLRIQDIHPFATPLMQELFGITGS
The experiment in a line: Agonist activity at PXR (unknown origin).

The nature of data set [9]: Tmax in mouse at 10 mg/kg, po. In kind it is ADME, organism-based. As to conditions: in vivo.

The term EC50 denotes the concentration needed to bring the measured effect to its halfway point. For orientation: Cmax means the maximum level reached in the sampled fluid or tissue. In general, IC50 refers to the concentration at which inhibition is half-maximal. The term AUC denotes the area under the concentration-time curve, a measure of exposure. A lower AUC goes with less exposure. What is called Tmax is the time at which the peak concentration occurs.

Chain of Voltage-gated inwardly rectifying potassium channel KCNH2 (Q12809 whole entry, canonical isoform): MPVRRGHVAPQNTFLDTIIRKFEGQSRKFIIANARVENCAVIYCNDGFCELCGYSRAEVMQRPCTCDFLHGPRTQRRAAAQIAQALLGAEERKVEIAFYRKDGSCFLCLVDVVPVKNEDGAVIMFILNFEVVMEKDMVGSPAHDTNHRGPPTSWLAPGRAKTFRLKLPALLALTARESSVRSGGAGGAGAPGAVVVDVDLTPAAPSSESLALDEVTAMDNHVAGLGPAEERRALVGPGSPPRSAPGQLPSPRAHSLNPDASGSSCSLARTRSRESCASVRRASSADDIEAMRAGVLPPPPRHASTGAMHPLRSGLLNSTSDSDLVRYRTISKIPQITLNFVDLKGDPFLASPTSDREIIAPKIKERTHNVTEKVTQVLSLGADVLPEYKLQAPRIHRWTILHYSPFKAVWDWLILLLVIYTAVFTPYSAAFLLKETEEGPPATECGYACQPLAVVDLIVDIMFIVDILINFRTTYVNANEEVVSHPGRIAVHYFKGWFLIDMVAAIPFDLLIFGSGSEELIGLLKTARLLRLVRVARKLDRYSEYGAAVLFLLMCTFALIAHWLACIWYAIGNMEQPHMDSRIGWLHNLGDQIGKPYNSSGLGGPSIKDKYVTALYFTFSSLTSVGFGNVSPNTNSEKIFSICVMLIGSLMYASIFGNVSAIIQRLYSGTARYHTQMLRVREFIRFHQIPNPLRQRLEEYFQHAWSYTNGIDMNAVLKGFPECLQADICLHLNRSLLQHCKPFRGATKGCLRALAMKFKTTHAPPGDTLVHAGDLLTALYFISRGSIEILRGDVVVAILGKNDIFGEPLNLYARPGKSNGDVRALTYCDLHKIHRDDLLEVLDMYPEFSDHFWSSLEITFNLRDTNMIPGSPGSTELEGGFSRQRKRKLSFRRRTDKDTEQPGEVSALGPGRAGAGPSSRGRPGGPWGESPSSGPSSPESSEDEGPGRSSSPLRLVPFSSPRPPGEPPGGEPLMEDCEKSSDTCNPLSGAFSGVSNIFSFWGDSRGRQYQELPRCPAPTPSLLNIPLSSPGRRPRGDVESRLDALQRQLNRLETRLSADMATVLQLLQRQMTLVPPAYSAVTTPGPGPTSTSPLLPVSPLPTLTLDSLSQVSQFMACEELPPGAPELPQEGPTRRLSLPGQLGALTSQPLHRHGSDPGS

Consider `COc1ccccc1-n1c(O)cc(=O)nc1SC(C)C`, for which the EC50 on Apelin receptor was 23 nM. Turning to `C=CCn1c(O)cc(=O)nc1SC(C)CC` (stereo not given), the Efficacy in data set [1] is 100%. The EC50 at Apelin receptor was determined as 4400 nM. Consider `CCCSc1nc(=O)cc(O)n1-c1ccccc1C(F)(F)F`, for which the EC50 at Apelin receptor was found to be 90 nM. Consider `CCCSc1nc(=O)cc(O)n1-c1ccccc1OC`, for which the highest level in data set [2] (Cmax) was 4.4 µM. For the same compound, the figures for the IC50 in [3] and in data set [4] were above 80000 nM and above 20000 nM, respectively. The Papp in data set [5] amounted to 13.1 ×10⁻⁶ cm/s; in data set [6] it was 23 ×10⁻⁶ cm/s. In addition, the AUC in [7] is 29 µM·h. For the same compound, the EC50 in data set [8] is above 50000 nM; on Apelin receptor it was 64 nM and 40 nM and 160 nM. The Tmax in [9] is 4 h. Regarding `CCCCc1nc(=O)cc(O)n1-c1c(OC)cccc1OC`, the EC50 at Apelin receptor came to 11 nM. The same measure, in the same setting: the value for `CCCSc1nc(=O)cc(O)n1-c1ccccc1C` was 100 nM; that for `CCCCSc1nc(=O)cc(O)n1-c1ccccc1OC` was 200 nM. On the same count and under the same terms, the value for `CCCSc1nc(=O)c(C)c(O)n1-c1ccccc1OC` was 1400 nM; that for `CCCSc1nc(=O)cc(O)n1-c1ccccc1Cl` was 250 nM.

As to `C=CCc1c(O)n(-c2ccccc2OC)c(SCCC)nc1=O`, the EC50 on Apelin receptor was 570 nM. Same read-out and setting: then `CCCSc1nc(=O)c(CC)c(O)n1-c1ccccc1OC`, with 860 nM; and `CCCSc1nc(=O)cc(O)n1-c1ccccc1OCC`, with 100 nM.

Take `CCCSc1nc(=O)cc(O)n1-c1ccc(OC)cc1`: the concentration for a half-maximal effect (EC50) at Apelin receptor came to 680 nM. The same measure, in the same setting: the value for `CCCCc1nc(=O)c(Cc2ccc(OC)cc2)c(O)n1-c1c(OC)cccc1OC` was 13 nM; that for `CCCSc1nc(=O)cc(O)n1-c1cccc(C)c1` was 290 nM. Same read-out and setting: the value for `CCCSc1nc(=O)cc(O)n1-c1ccccc1Br` was 155 nM. On to `CCCSc1nc(=O)cc(O)n1-c1ccccc1`, for which, in data set [1], the Efficacy worked out at 100%. Besides, the EC50 at Apelin receptor is 5000 nM.

Turning to `CCCCc1nc(=O)cc(O)n1-c1c(C)cccc1OC`, in data set [2], the concentration peaked (Cmax) at 1.68 µM. Moreover, the IC50 in data set [3] is above 80000 nM; in data set [4] it was above 20000 nM. Moreover, the Papp came to 1 ×10⁻⁶ cm/s in data set [5] and 1.2 ×10⁻⁶ cm/s in data set [6]. The compound further displayed an area under the curve (AUC) in data set [7] of 10.2 µM·h. In addition, the EC50 in data set [8] was above 14000 nM; on Apelin receptor it was 5 nM and 3 nM and 2 nM. Also, the Tmax in data set [9] was determined as 4 h. Regarding `CCCSc1nc(=O)cc(O)n1-c1ccccc1CC`, the EC50 at Apelin receptor amounted to 140 nM.

Turning to `CCCCc1nc(=O)cc(O)n1-c1ccccc1OC`, the EC50 at Apelin receptor is 22 nM and 24 nM and 31 nM. Same read-out and setting: the value for `CCCSc1nc(=O)cc(O)n1-c1ccc(C)cc1` was 260 nM; that for `COc1ccccc1-n1c(O)cc(=O)nc1SCC(C)C` was 78 nM; that for `CCCSc1nc(=O)c(C(C)C)c(O)n1-c1ccccc1OC` was 450 nM. Still for that read-out and setting: the value for `CCCSc1nc(=O)cc(O)n1-c1cccc(OC)c1` was 940 nM. On the same count and under the same terms, then `CCCSc1nc(=O)cc(O)n1-c1ccccc1F`, with 160 nM. As to `CCCCc1c(O)n(-c2ccccc2OC)c(SCCC)nc1=O`, the EC50 on Apelin receptor stood at 1700 nM.

In the case of `CCCSc1nc(=O)c(Cc2ccccc2)c(O)n1-c1ccccc1OC`, the EC50 at Apelin receptor is 340 nM.
